Results as given in patent US20230085307A1, “PYRIDAZINONE COMPOUND AND HERBICIDE” (NISSAN CHEMICAL CORPORATION, priority 2019, published 2023).

Columns and labels:
[1] = test system: Italian ryegrass; assay: Test Example 4: herbicidal effect by soil treatment (Table 19, symbol K); type: in vivo, Italian ryegrass (Lolium multiflorum); conditions: amount of applied herbicide 320 g/ha
How it was run: (§1)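 Scoring uses the grading scale of an earlier test, three weeks post-application. Treatment consists of spraying a diluted emulsion formulation across the surface of sterilized diluvial soil in which seeds are buried near 1.5 cm deep; boxes are kept in a greenhouse between 25° C. and 30° C.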

[2] = test system: persian speedwell; assay: Test Example 5: herbicidal effect by foliage application, plastic box (Table 20, symbol R); type: in vivo, Persian speedwell (Veronica persica); conditions: foliage application, 320 g/ha, evaluated three weeks after application
How it was run: (§2)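 Post-emergence foliar test in sterilized diluvial soil. Compound applied as water-diluted emulsion at a predetermined rate to 14-day-old plants; evaluation at three weeks.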

[3] = test system: wild oat; assay: Test Example 5: herbicidal effect by foliage application, plastic box (Table 20, symbol I); type: in vivo, wild oat (Avena fatua); conditions: foliage application, 320 g/ha, evaluated three weeks after application
How it was run: as §2

[4] = test system: wild oat; assay: Test Example 4: herbicidal effect by soil treatment (Table 19, symbol I); type: in vivo, wild oat (Avena fatua); conditions: amount of applied herbicide 320 g/ha
How it was run: as §1

[5] = test system: persian speedwell; assay: Test Example 4: herbicidal effect by soil treatment (Table 19, symbol R); type: in vivo, Persian speedwell (Veronica persica); conditions: amount of applied herbicide 320 g/ha
How it was run: as §1

[6] = test system: southern crabgrass; assay: Test Example 5: herbicidal effect by foliage application, plastic box (Table 20, symbol F); type: in vivo, southern crabgrass (Digitaria ciliaris); conditions: foliage application, 320 g/ha, evaluated three weeks after application
How it was run: as §2

[7] = test system: southern crabgrass; assay: Test Example 4: herbicidal effect by soil treatment (Table 19, symbol F); type: in vivo, southern crabgrass (Digitaria ciliaris); conditions: amount of applied herbicide 320 g/ha
How it was run: as §1

[8] = test system: redroot pigweed; assay: Test Example 4: herbicidal effect by soil treatment (Table 19, symbol N); type: in vivo, redroot pigweed (Amaranthus retroflexus); conditions: amount of applied herbicide 320 g/ha
How it was run: as §1

[9] = test system: chickweed; assay: Test Example 4: herbicidal effect by soil treatment (Table 19, symbol P); type: in vivo, common chickweed (Stellaria media); conditions: amount of applied herbicide 320 g/ha
How it was run: as §1

[10] = test system: barnyard grass; assay: Test Example 4: herbicidal effect by soil treatment (Table 19, symbol H); type: in vivo, barnyard grass (Echinochloa crus-galli); conditions: amount of applied herbicide 320 g/ha
How it was run: as §1

[11] = test system: Chinese sprangletop; assay: Test Example 3: herbicidal effect by foliage application, Wagner pot (Table 18, symbol D); type: in vivo, chinese sprangletop (Leptochloa chinensis); conditions: amount of applied herbicide 320 g/ha
How it was run: (§3)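 Plants were sown in alluvial soil held under 0.1–0.5 cm standing water and grown 14 days in a greenhouse at 25–30 °C. An emulsifiable formulation, water-diluted to the set dose, was then sprayed onto the foliage, and effects were scored three weeks later using previously defined criteria.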

[12] = test system: barnyard grass; assay: Test Example 3: herbicidal effect by foliage application, Wagner pot (Table 18, symbol H); type: in vivo, barnyard grass (Echinochloa crus-galli); conditions: amount of applied herbicide 320 g/ha
How it was run: as §3

[13] = test system: green foxtail; assay: Test Example 5: herbicidal effect by foliage application, plastic box (Table 20, symbol G); type: in vivo, green foxtail (Setaria viridis); conditions: foliage application, 320 g/ha, evaluated three weeks after application
How it was run: as §2

[14] = test system: windgrass; assay: Test Example 5: herbicidal effect by foliage application, plastic box (Table 20, symbol L); type: in vivo, windgrass (Apera spica-venti); conditions: foliage application, 320 g/ha, evaluated three weeks after application
How it was run: as §2

[15] = test system: blackgrass; assay: Test Example 5: herbicidal effect by foliage application, plastic box (Table 20, symbol J); type: in vivo, blackgrass (Alopecurus myosuroides); conditions: foliage application, 320 g/ha, evaluated three weeks after application
How it was run: as §2

[16] = test system: blackgrass; assay: Test Example 4: herbicidal effect by soil treatment (Table 19, symbol J); type: in vivo, blackgrass (Alopecurus myosuroides); conditions: amount of applied herbicide 320 g/ha
How it was run: as §1

[17] = test system: lambsquarters; assay: Test Example 5: herbicidal effect by foliage application, plastic box (Table 20, symbol O); type: in vivo, lambsquarters (Chenopodium album); conditions: foliage application, 320 g/ha, evaluated three weeks after application
How it was run: as §2

[18] = test system: redroot pigweed; assay: Test Example 5: herbicidal effect by foliage application, plastic box (Table 20, symbol N); type: in vivo, redroot pigweed (Amaranthus retroflexus); conditions: foliage application, 320 g/ha, evaluated three weeks after application
How it was run: as §2

[19] = test system: Italian ryegrass; assay: Test Example 5: herbicidal effect by foliage application, plastic box (Table 20, symbol K); type: in vivo, Italian ryegrass (Lolium multiflorum); conditions: foliage application, 320 g/ha, evaluated three weeks after application
How it was run: as §2

[20] = test system: windgrass; assay: Test Example 4: herbicidal effect by soil treatment (Table 19, symbol L); type: in vivo, windgrass (Apera spica-venti); conditions: amount of applied herbicide 320 g/ha
How it was run: as §1

[21] = test system: rice flat sedge; assay: Test Example 3: herbicidal effect by foliage application, Wagner pot (Table 18, symbol E); type: in vivo, rice flat sedge (Cyperus iria); conditions: amount of applied herbicide 320 g/ha
How it was run: as §3

[22] = test system: lambsquarters; assay: Test Example 4: herbicidal effect by soil treatment (Table 19, symbol O); type: in vivo, lambsquarters (Chenopodium album); conditions: amount of applied herbicide 320 g/ha
How it was run: as §1

[23] = test system: green foxtail; assay: Test Example 4: herbicidal effect by soil treatment (Table 19, symbol G); type: in vivo, green foxtail (Setaria viridis); conditions: amount of applied herbicide 320 g/ha
How it was run: as §1

[24] = test system: velvetleaf; assay: Test Example 4: herbicidal effect by soil treatment (Table 19, symbol M); type: in vivo, velvetleaf (Abutilon theophrasti); conditions: amount of applied herbicide 320 g/ha
How it was run: as §1

[25] = test system: chickweed; assay: Test Example 5: herbicidal effect by foliage application, plastic box (Table 20, symbol P); type: in vivo, common chickweed (Stellaria media); conditions: foliage application, 320 g/ha, evaluated three weeks after application
How it was run: as §2

[26] = test system: velvetleaf; assay: Test Example 5: herbicidal effect by foliage application, plastic box (Table 20, symbol M); type: in vivo, velvetleaf (Abutilon theophrasti); conditions: foliage application, 320 g/ha, evaluated three weeks after application
How it was run: as §2

[27] = test system: barnyard grass; assay: Test Example 5: herbicidal effect by foliage application, plastic box (Table 20, symbol H); type: in vivo, barnyard grass (Echinochloa crus-galli); conditions: foliage application, 320 g/ha, evaluated three weeks after application
How it was run: as §2

Structure (SMILES) | K: Italian ryegrass, herbicidal effect rating [1] | I: wild oat, herbicidal effect rating [4] | R: persian speedwell, herbicidal effect rating [5] | F: southern crabgrass, herbicidal effect rating [7] | N: redroot pigweed, herbicidal effect rating [8] | P: chickweed, herbicidal effect rating [9] | H: barnyard grass, herbicidal effect rating [10] | herbicidal effect on D: Chinese sprangletop [11] | herbicidal effect on H: barnyard grass [12] | J: blackgrass, herbicidal effect rating [16] | L: windgrass, herbicidal effect rating [20] | herbicidal effect on E: rice flat sedge [21] | O: lambsquarters, herbicidal effect rating [22] | G: green foxtail, herbicidal effect rating [23] | M: velvetleaf, herbicidal effect rating [24] | further results
CCCC(=O)Oc1c(C)nn(C)c(=O)c1-c1c(-c2ccc(F)cc2)sc2ccc(C)cc12 [2-135] | 1 (Herbicidal rate of 5% or more and less than 20%) | 0 (Herbicidal rate of 5% or less (almost no effect)) | 0 (Herbicidal rate of 5% or less (almost no effect)) | 0 (Herbicidal rate of 5% or less (almost no effect)) | 0 (Herbicidal rate of 5% or less (almost no effect)) | 3 (Herbicidal rate of 40% or more and less than 70%) | 0 (Herbicidal rate of 5% or less (almost no effect)) | 0 (Herbicidal rate of 5% or less (almost no effect)) | 1 (Herbicidal rate of 5% or more and less than 20%) | 0 (Herbicidal rate of 5% or less (almost no effect)) | 0 (Herbicidal rate of 5% or less (almost no effect)) | 3 (Herbicidal rate of 40% or more and less than 70%) | 0 (Herbicidal rate of 5% or less (almost no effect)) | 0 (Herbicidal rate of 5% or less (almost no effect)) | 0 (Herbicidal rate of 5% or less (almost no effect)) | herbicidal effect on R: persian speedwell [2]: 1 (Herbicidal rate of 5% or more and less than 20%); herbicidal effect on I: wild oat [3]: 0 (Herbicidal rate of 5% or less (almost no effect)); herbicidal effect on F: southern crabgrass [6]: 0 (Herbicidal rate of 5% or less (almost no effect)); herbicidal effect on G: green foxtail [13]: 0 (Herbicidal rate of 5% or less (almost no effect)); herbicidal effect on L: windgrass [14]: 0 (Herbicidal rate of 5% or less (almost no effect)); herbicidal effect on J: blackgrass [15]: 0 (Herbicidal rate of 5% or less (almost no effect)); herbicidal effect on O: lambsquarters [17]: 3 (Herbicidal rate of 40% or more and less than 70%); herbicidal effect on N: redroot pigweed [18]: 5 (Herbicidal rate of 90% or more (almost completely withered)); herbicidal effect on K: Italian ryegrass [19]: 3 (Herbicidal rate of 40% or more and less than 70%); herbicidal effect on P: chickweed [25]: 5 (Herbicidal rate of 90% or more (almost completely withered)); herbicidal effect on M: velvetleaf [26]: 4 (Herbicidal rate of 70% or more and less than 90%); herbicidal effect on H: barnyard grass [27]: 0 (Herbicidal rate of 5% or less (almost no effect))
CCCC(=O)Oc1c(C)nn(C)c(=O)c1-c1c(-c2cccc(OCC)c2)sc2ccc(F)cc12 [2-212] | 3 (Herbicidal rate of 40% or more and less than 70%) | 0 (Herbicidal rate of 5% or less (almost no effect)) | 4 (Herbicidal rate of 70% or more and less than 90%) | 3 (Herbicidal rate of 40% or more and less than 70%) | 3 (Herbicidal rate of 40% or more and less than 70%) | 1 (Herbicidal rate of 5% or more and less than 20%) | 5 (Herbicidal rate of 90% or more (almost completely withered)) | 3 (Herbicidal rate of 40% or more and less than 70%) | 5 (Herbicidal rate of 90% or more (almost completely withered)) | 0 (Herbicidal rate of 5% or less (almost no effect)) | 0 (Herbicidal rate of 5% or less (almost no effect)) | 4 (Herbicidal rate of 70% or more and less than 90%) | 1 (Herbicidal rate of 5% or more and less than 20%) | 4 (Herbicidal rate of 70% or more and less than 90%) | 0 (Herbicidal rate of 5% or less (almost no effect)) | herbicidal effect on R: persian speedwell (criteria 0-5) [2]: 5 (Herbicidal rate of 90% or more (almost completely withered)); herbicidal effect on I: wild oat (criteria 0-5) [3]: 0 (Herbicidal rate of 5% or less (almost no effect)); herbicidal effect on F: southern crabgrass (criteria 0-5) [6]: 5 (Herbicidal rate of 90% or more (almost completely withered)); herbicidal effect on G: green foxtail (criteria 0-5) [13]: 5 (Herbicidal rate of 90% or more (almost completely withered)); herbicidal effect on L: windgrass (criteria 0-5) [14]: 3 (Herbicidal rate of 40% or more and less than 70%); herbicidal effect on J: blackgrass (criteria 0-5) [15]: 0 (Herbicidal rate of 5% or less (almost no effect)); herbicidal effect on O: lambsquarters (criteria 0-5) [17]: 3 (Herbicidal rate of 40% or more and less than 70%); herbicidal effect on N: redroot pigweed (criteria 0-5) [18]: 5 (Herbicidal rate of 90% or more (almost completely withered)); herbicidal effect on K: Italian ryegrass (criteria 0-5) [19]: 4 (Herbicidal rate of 70% or more and less than 90%); herbicidal effect on P: chickweed (criteria 0-5) [25]: 5 (Herbicidal rate of 90% or more (almost completely withered)); herbicidal effect on M: velvetleaf (criteria 0-5) [26]: 3 (Herbicidal rate of 40% or more and less than 70%); herbicidal effect on H: barnyard grass (criteria 0-5) [27]: 4 (Herbicidal rate of 70% or more and less than 90%)
